Each structure is given as a SMILES string.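 Five concentrations, 48 hours, 96-well plates. At the GI50, growth is halved.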 The source made the active and inactive calls. Rule as the data show it: active = GI50 up to about 1.1 µM and inactive = higher.

Some test systems named below: BT-549; COLO 205; DU-145; HCT-116; HOP-62; HT-29; KM12; M14; MDA-MB-435; Malme-3M; NCI-H226; NCI-H460; NCI-H522; OVCAR-5; RPMI-8226; SF-268; SN12C; SW-620; T47D; U-251.
Holding throughout (assay): DTP human tumour cell line panel, 48 h

In the case of `N=C(N)NC(=N)Nc1ccc(S(=O)(=O)O)cc1`, the GI50 in the test with BT-549, in the test with COLO 205, in the test on DU-145, in the test with HCT-116, in the test on HOP-62 and in the test with HT-29 was > 100 µM (inactive) each time. For the same compound, the GI50 in the test with KM12, in the test with M14, with MDA-MB-435, in the test on Malme-3M, in the test with NCI-H226 and in the test on NCI-H460 was > 100 µM (inactive) in each case. For the same compound, the GI50 with NCI-H522, in the test on OVCAR-5, with RPMI-8226, in the test on SF-268, in the test with SN12C and in the test on SW-620 was > 100 µM (inactive) in each case. Further, the GI50 with T47D and with U-251 was > 100 µM (inactive) in each case.
Turning to `CO[C@@H]1[C@H](O)CC[C@]2(CO2)[C@H]1[C@@]1(C)O[C@@H]1CC=C(C)C`, the GI50 with BT-549 is > 200 µM (inactive); in the test on COLO 205, 152 µM (inactive); with DU-145, 140 µM (inactive); with HCT-116, 84.3 µM (inactive); in the test on HOP-62 it was 58.2 µM (inactive); in the test with HT-29 it was > 200 µM (inactive). Moreover, the GI50 is 34.1 µM (inactive) with KM12; 180 µM (inactive) with M14; 95.5 µM (inactive) in the test on MDA-MB-435; 81.8 µM (inactive) in the test on Malme-3M; > 200 µM (inactive) in the test on NCI-H226; 0.617 µM (active) in the test with NCI-H460. For the same compound, the GI50 was > 200 µM (inactive) in the test on NCI-H522; > 200 µM (inactive) in the test on OVCAR-5; 185 µM (inactive) with RPMI-8226; > 200 µM (inactive) in the test on SF-268; 25 µM (inactive) with SN12C; 107 µM (inactive) in the test on SW-620. For the same compound, the GI50 with T47D is > 200 µM (inactive); with U-251 it was 2.29 µM (inactive).
`O=C(NCCNCCNCCNC(=O)c1cc(-c2ccccc2)nc2ccccc12)c1cc(-c2ccccc2)nc2ccccc12`: the GI50 in the test on BT-549 is 7.52 µM (inactive); in the test on COLO 205, 1.99 µM (inactive); with DU-145 it was 3.24 µM (inactive); in the test with HCT-116, 1.88 µM (inactive); in the test on HOP-62, 2.51 µM (inactive); in the test with HT-29, 1.7 µM (inactive). Also, the GI50 with KM12 is 2.24 µM (inactive); in the test with M14, 1.82 µM (inactive); in the test on MDA-MB-435 it was 1.81 µM (inactive); with Malme-3M, 1.87 µM (inactive); in the test on NCI-H226, 2.64 µM (inactive); with NCI-H460 it was 1.79 µM (inactive). Besides, the GI50 in the test with NCI-H522 is 1.67 µM (inactive); in the test with OVCAR-5, 1.87 µM (inactive); with RPMI-8226, 2.45 µM (inactive); in the test with SF-268, 3.4 µM (inactive); in the test with SN12C, 3.07 µM (inactive); in the test on SW-620, 1.83 µM (inactive). Moreover, the results for the GI50 with T47D and with U-251 were 2.68 µM (inactive) and 1.73 µM (inactive), respectively.
For the compound `CC(C(=O)ON1C(=O)CCC1=O)c1ccc(C(=O)c2ccccc2)s1` (stereo not given), the GI50 in the test on BT-549, with COLO 205, in the test on DU-145, in the test with HCT-116, with HOP-62 and with HT-29 was > 100 µM (inactive) throughout. Moreover, the GI50 in the test on KM12, with M14, in the test on MDA-MB-435, in the test on Malme-3M, with NCI-H226 and with NCI-H460 was > 100 µM (inactive) each time. In addition, the GI50 in the test with NCI-H522, with OVCAR-5, in the test on RPMI-8226, in the test on SF-268, with SN12C and in the test with SW-620 was > 100 µM (inactive) throughout. Further, the GI50 with T47D and with U-251 was > 100 µM (inactive) in each case.
In the case of `COC(=O)/C=C(\S/C(=N\n1cc(C(=O)OC)c(C(=O)OC)c1-c1ccc(C)cc1)c1ccc(C)cc1)C(=O)OC`, the GI50 was 7.23 µM (inactive) in the test with BT-549; 2.45 µM (inactive) in the test with COLO 205; 6.78 µM (inactive) with DU-145; 1.97 µM (inactive) in the test with HCT-116; 16.9 µM (inactive) with HOP-62; 4.91 µM (inactive) in the test with HT-29. In addition, the GI50 was 19.1 µM (inactive) with KM12; 5.94 µM (inactive) in the test on M14; 5.94 µM (inactive) in the test on MDA-MB-435; 6.52 µM (inactive) in the test with Malme-3M; 1.7 µM (inactive) in the test on NCI-H226; 17.7 µM (inactive) with NCI-H460. Also, the GI50 was 1.67 µM (inactive) in the test on NCI-H522; 6.7 µM (inactive) in the test with OVCAR-5; 1.44 µM (inactive) with RPMI-8226; 16.1 µM (inactive) in the test on SF-268; 6.18 µM (inactive) with SN12C; 1.77 µM (inactive) in the test on SW-620. Also, the GI50 with T47D was 1.03 µM (active); with U-251, 5.66 µM (inactive).
`Cc1ccc(S(=O)(=O)NC(=O)NNc2ccc(F)cc2)cc1`: the GI50 with BT-549 was > 31.6 µM (inactive); in the test with COLO 205 it was > 100 µM (inactive); in the test on DU-145 it was > 100 µM (inactive); in the test with HCT-116, > 100 µM (inactive); in the test with HOP-62, > 100 µM (inactive); with HT-29 it was > 100 µM (inactive). Further, the GI50 with KM12, in the test with M14, in the test on MDA-MB-435, with Malme-3M, with NCI-H226 and in the test with NCI-H460 was > 100 µM (inactive) each time. For the same compound, the GI50 was > 100 µM (inactive) with NCI-H522; > 100 µM (inactive) in the test with OVCAR-5; > 27 µM (inactive) in the test on RPMI-8226; > 100 µM (inactive) in the test on SF-268; > 100 µM (inactive) with SN12C; > 100 µM (inactive) with SW-620. Further, the GI50 in the test with T47D and in the test with U-251 was > 100 µM (inactive) in each case.
`CC(C)c1cccc(C(C)C)c1NC(=O)/C(CC(=O)CC(c1ccccc1)c1c(O)c2ccccc2oc1=O)=N/O` (stereo not given): the GI50 with BT-549, in the test on COLO 205, in the test with DU-145, with HCT-116, with HOP-62 and in the test with HT-29 was > 100 µM (inactive) throughout. The GI50 in the test with KM12 is > 100 µM (inactive); in the test on M14, > 100 µM (inactive); in the test on MDA-MB-435, > 100 µM (inactive); in the test on Malme-3M, 95.9 µM (inactive); in the test on NCI-H226, > 100 µM (inactive); with NCI-H460, > 100 µM (inactive). The GI50 in the test on NCI-H522, with OVCAR-5, in the test with RPMI-8226, in the test on SF-268, in the test with SN12C and in the test with SW-620 was > 100 µM (inactive) in each case. Also, the GI50 with T47D and in the test with U-251 was > 100 µM (inactive) in each case.

By GI50 is commonly meant the concentration that inhibits growth by half.
